Reference: ChEMBL document CHEMBL1146133, “Synthesis of benz[d]indeno[1,2-b]pyran-5,11-diones: versatile intermediates for the design and synthesis of topoisomerase I inhibitors” (2006)

Columns and labels:
Format in all cases: functional
SF-268 = test: Antiproliferative activity against human SF268 cell line
UACC-62 = test: Antiproliferative activity against human UACC62 cell line
HCT-116 = test: Antiproliferative activity against human HCT116 cell line
SN12C = test: Antiproliferative activity against human SN12C cell line
OVCAR-3 = test: Antiproliferative activity against human OVCAR-3 cell line
HOP-62 = test: Antiproliferative activity against human HOP62 cell line
DU-145 = test: Antiproliferative activity against human DU145 cell line
MDA-MB-435 = test: Antiproliferative activity against human MDA-MB-435 cell line

Row | SMILES | GI50 (SF-268) | GI50 (UACC-62) | GI50 (HCT-116) | GI50 (SN12C) | GI50 (OVCAR-3) | GI50 (HOP-62) | GI50 (DU-145) | GI50 (MDA-MB-435)
1 | O=C1c2ccccc2-c2c1c1ccccc1c(=O)n2CCN1CCOCC1 | 85.1 µM |  |  |  |  |  |  | 
2 | CN(C)CCCn1c2c(c3cc4c(cc3c1=O)OCO4)C(=O)c1ccccc1-2 | 2.69 µM | 0.3 µM | < 0.01 µM | 0.023 µM | 2.63 µM | < 0.01 µM | 2.04 µM | 3.02 µM
3 | O=C1c2ccccc2-c2c1c1ccccc1c(=O)n2CCCn1ccnc1 | 2.34 µM | 0.79 µM | 1.41 µM | 1.66 µM | 1.66 µM | 2.69 µM | 1.41 µM | 
4 | O=C1c2ccccc2-c2c1c1ccc([N+](=O)[O-])cc1c(=O)n2CCN1CCOCC1 |  | 83.2 µM | > 100 µM | 58.9 µM | > 100 µM | 52.5 µM | 61.7 µM | > 100 µM
5 | O=C1c2ccccc2-c2c1c1ccccc1c(=O)n2CCNCCO | 1.65 µM |  |  |  |  |  |  | 
6 | COc1cc2c3c(n(CCN4CCOCC4)c(=O)c2cc1OC)-c1ccccc1C3=O | > 100 µM | 56.2 µM | 60.3 µM | > 100 µM | > 100 µM | 89.1 µM | > 100 µM | > 100 µM
7 | COc1cc2c3c(oc(=O)c2cc1OC)-c1ccccc1C3=O | 100 µM | 100 µM | 100 µM | 100 µM | 100 µM |  | 100 µM | 100 µM
8 | COc1cc2c(=O)oc3c(c2c(OC)c1OC)C(=O)c1ccccc1-3 | > 100 µM | > 100 µM | > 100 µM | > 100 µM | > 100 µM | 53.7 µM | > 100 µM | > 100 µM
9 | O=C1c2ccccc2-c2c1c1ccc([N+](=O)[O-])cc1c(=O)n2CCCn1ccnc1 | 0.016 µM |  |  |  |  |  |  | 
10 | O=C1c2ccccc2-c2oc(=O)c3cc4c(cc3c21)OCO4 | > 100 µM | 25.1 µM | 47.9 µM | > 100 µM | > 100 µM | 18.2 µM | > 100 µM | > 100 µM
11 | CN(C)CCCn1c2c(c3ccc([N+](=O)[O-])cc3c1=O)C(=O)c1ccccc1-2 |  | 7.08 µM | 6.46 µM | 4.17 µM | 25.7 µM |  |  | > 100 µM
12 | COc1cc2c3c(n(CCCN(C)C)c(=O)c2cc1OC)-c1ccccc1C3=O | 6.17 µM | 6.61 µM | 2.45 µM | 11 µM | 5.89 µM |  | 4.47 µM | 7.08 µM
13 | O=C1c2ccccc2-c2oc(=O)c3cc([N+](=O)[O-])ccc3c21 | > 100 µM | > 100 µM | > 100 µM | > 100 µM | > 100 µM | > 100 µM | > 100 µM | > 100 µM
14 | COc1cc2c3c(n(CCCn4ccnc4)c(=O)c2cc1OC)-c1ccccc1C3=O | < 0.01 µM |  |  |  |  |  |  | 
15 | CC[C@@]1(O)C(=O)OCc2c1cc1n(c2=O)Cc2cc3ccccc3nc2-1 [CAMPTOTHECIN] | 0.01 µM |  |  |  |  |  |  | 
